The values below come from patent EP0645379A2, “Benzoylacetylene derivatives” (priority 1993, dated 1995).

The test system of assay [1] is KB cell. Kind of assay: Cancer cell growth inhibitory activity (KB cells, MTT colorimetric determination). The format is cell-based, human. As to the method: In order to evaluate tyrosine kinase inhibitory activity and cancer cell growth inhibitory activity for tyrosine kinase inhibitor of the invention, tests were carried out in partially purified human EGF (epidermal growth factor) receptor tyrosine kinase activity detemination system and in a cell incubation system using human cancer cells. Furthermore, in order to compare and evaluate strength of inhibitory activity, relatively higher active ones amongst known tyrosine kinase inhibitors disclosed in patents or literatures were tested simultaneously.
Accordingly, the KB cell was used to evaluate the effect of test compounds on the growth of cultured cancer cells.
KB cells were plated on a 96-well dish (2.5x 10^3 cell/well) and cultured for 24 hours at 37 ° C under 5% C02 atmosphere in DMEM:F12 (1:1) medium containing 10% FCS, 50 µg/ml penicillin, and 50µg/ml streptomycin. To the culture medium was added a test compound dissolved in DMSO (DMSO final concentration < 0.1%), and the cells were cultured for three days under the same conditions. The test compound was exchanged every 24 hours together with the culture medium.
The amount of living cells were measured by calorimetric determination at wave lengths of 550 nm and 650 nm after developing colour by MTT (3-[4,5-Dimethylthiazol-2-yl]-2,5-diphenyltetrazolium bromide), in accordance with the method of Michael C. Alley et al. (Cancer Research 48 589, 1988).
Cancer cell growth inhibitory activity (CCGIA) was determined according to the following equation. [formula] Symbols "a" and "b" represent the colorimetric values determined in the cancer cell growth assay with and without the test compounds, respectively.

For assay [2], the target named is T1, partially purified human EGF (epidermal growth factor) receptor tyrosine kinase (Homo sapiens, UniProt P00533).
T1 construct: The cell membrane fraction, a partially purified EGF receptor, was used as an enzyme source; endogenous in cells; host or cells: A431 human epidermoid carcinoma cells (membrane fraction, 10000xg pellet)
T1 sequence (P01133 971-1023): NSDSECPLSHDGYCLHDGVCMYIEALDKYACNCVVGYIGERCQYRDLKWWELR
T1 sequence (P00533 25-1210): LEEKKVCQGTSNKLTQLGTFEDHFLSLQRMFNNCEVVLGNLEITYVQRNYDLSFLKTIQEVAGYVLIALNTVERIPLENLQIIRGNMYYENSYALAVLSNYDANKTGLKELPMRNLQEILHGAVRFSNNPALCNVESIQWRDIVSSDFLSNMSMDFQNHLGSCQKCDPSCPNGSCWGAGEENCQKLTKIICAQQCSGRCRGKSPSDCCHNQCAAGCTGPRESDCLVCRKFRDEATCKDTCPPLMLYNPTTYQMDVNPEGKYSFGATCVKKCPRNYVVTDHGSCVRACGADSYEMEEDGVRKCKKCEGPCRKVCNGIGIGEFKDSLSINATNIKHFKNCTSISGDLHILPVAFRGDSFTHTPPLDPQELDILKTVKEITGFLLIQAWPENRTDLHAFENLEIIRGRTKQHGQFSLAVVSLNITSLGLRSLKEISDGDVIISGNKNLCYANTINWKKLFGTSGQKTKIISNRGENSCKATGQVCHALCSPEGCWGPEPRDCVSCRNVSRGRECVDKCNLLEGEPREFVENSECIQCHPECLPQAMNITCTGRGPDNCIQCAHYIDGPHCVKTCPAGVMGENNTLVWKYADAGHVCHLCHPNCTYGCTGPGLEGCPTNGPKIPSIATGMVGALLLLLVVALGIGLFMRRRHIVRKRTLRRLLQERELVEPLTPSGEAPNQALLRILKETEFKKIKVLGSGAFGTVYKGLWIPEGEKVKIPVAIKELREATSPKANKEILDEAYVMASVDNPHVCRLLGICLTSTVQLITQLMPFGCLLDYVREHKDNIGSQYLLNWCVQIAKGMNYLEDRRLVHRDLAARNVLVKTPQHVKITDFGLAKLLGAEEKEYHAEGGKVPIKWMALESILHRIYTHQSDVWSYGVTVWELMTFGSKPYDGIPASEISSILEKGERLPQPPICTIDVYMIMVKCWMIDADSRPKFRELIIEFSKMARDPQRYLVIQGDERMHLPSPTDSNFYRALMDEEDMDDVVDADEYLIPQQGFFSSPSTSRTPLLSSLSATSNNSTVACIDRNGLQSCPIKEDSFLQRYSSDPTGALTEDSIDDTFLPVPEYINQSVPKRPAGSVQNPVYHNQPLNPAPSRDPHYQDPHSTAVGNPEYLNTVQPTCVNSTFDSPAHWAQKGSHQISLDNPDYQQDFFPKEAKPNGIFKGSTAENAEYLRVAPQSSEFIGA
Briefly: biochemical.

[3] abbreviates: Homo sapiens, 72 h; Table-3; KB cells, three days culture, MTT; 3) fumarate, 4) hydrochloride.
[4] abbreviates: Table-2; […]; 3) fumarate, 4) hydrochloride, read-out: Tyrosine kinase inhibitory activity (IC50).
Setting [5] is: Table-2 continued; […]; 4) hydrochloride, read-out: Tyrosine kinase inhibitory activity (IC50, μ).

Where a name gives a salt, the structure may show the parent alone. Read-outs that look alike come from different tables or passages of the source.

`CC(C)(C)c1cc(C(=O)C#CC(C)(C)N2CCCCC2)cc(C(C)(C)C)c1O` [compound 667]: the midpoint of inhibition in assay [1] (setting [3]), the IC50, lay at 120 nM.
Consider `COc1ccc(C(=O)C#CCN2C(C)(C)CCCC2(C)C)cc1OC` [compound 313], for which the IC50 was 180 nM in assay [2] (setting [4]) and 1000 nM in assay [1] (setting [3]).
Consider `COc1ccc(C(=O)C#Cc2ccccc2)cc1OC` [compound 19], for which the IC50 amounted to 670 nM in assay [2] (setting [4]) and 2650 nM in assay [1] (setting [3]).
Taken in the same sequence, the figures for `CCN(CC)C1(C#CC(=O)c2ccc(OC)c(OC)c2)CCCCC1` [compound 555] were 1700 nM and 460 nM.
Regarding `CC(C)(C#CC(=O)c1ccc(S(C)(=O)=O)cc1)N1CCCCC1` [compound 666], the IC50 amounted to 2600 nM in assay [2] (setting [5]) and 2200 nM in assay [1] (setting [3]).
For `COc1cccc(C(=O)C#CC(C)(C)N2CCCCC2)c1OC` [compound 664], in that order: 930 nM and 680 nM.
As for `COc1ccc(C(=O)C#CCN2CCCCC2)cc1OC` [compound 287], the IC50 in assay [2] (setting [4]) was 470 nM; in assay [1] (setting [3]), 1600 nM.
Taken in the same sequence, the figures for `COc1ccc(C(=O)C#Cc2ccccn2)cc1OC` [compound 69] were 240 nM and 1520 nM.
`CN(C)c1ccc(C(=O)C#CC(C)(C)N2CCCCC2)cc1` [compound 485]: in assay [1] (setting [3]), 690 nM corresponded to half-maximal inhibition (IC50).
For the compound `CCN(CC)CC#CC(=O)c1ccc(OC)c(OC)c1` [compound 222], the IC50 in assay [2] (setting [5]) came out at 13 nM; in assay [1] (setting [3]), 840 nM.
For `COc1ccc(C(=O)C#CCN(C(C)C)C(C)C)cc1OC` [compound 242], the IC50 in assay [2] (setting [4]) came out at 35 nM; in assay [1] (setting [3]), 2100 nM.
Taken in the same sequence, the figures for `CCN(CC)C(C)(C)C#CC(=O)c1ccc(OC)c(OC)c1` [compound 410] were 730 nM and 690 nM.
Take `COc1ccc(C(=O)C#CC(C)(C)Nc2c(C)cccc2C)cc1OC` [compound 645]: the half-inhibitory concentration (IC50) in assay [2] (setting [5]) came to 2200 nM; in assay [1] (setting [3]), 3400 nM.
For `COc1ccc(C(=O)C#CCNC(=O)OC(C)(C)C)cc1OC` [compound 388], in that order: 69 nM and 1100 nM.
In assay [1] (setting [3]), `CC(C)(C#CC(=O)c1ccc(F)cc1)N1CCCCC1` [compound 483] had an IC50 of 340 nM.
Consider `COc1ccc(C(=O)C#CC(C)(C)NC(=O)OCc2ccc[n+](C)c2)cc1OC` [compound 650], for which the half-maximal inhibitory concentration (IC50) in assay [1] (Table-3; KB cells, three days culture, MTT; 3) fumarate, 4) hydrochloride) is 6500 nM.
Regarding `COc1ccc(C(=O)C#CC(C)(C)NCC(C)C)cc1OC` [compound 644], the IC50 came out at 66 nM in assay [2] (setting [5]) and 2800 nM in assay [1] (setting [3]).
On to `COc1ccc(C(=O)C#CC(C)(C)Nc2cccc(Cl)c2)cc1OC` [compound 642], for which the IC50 in assay [2] (setting [5]) is 96 nM; in assay [1] (setting [3]), 1500 nM.
For `CCOc1cc(C=C(C#N)C(N)=O)cc(CSc2ccccc2)c1O` [[drawing] 2)], the IC50 in assay [2] (setting [4]) was 3200 nM; in assay [1] (setting [3]), 52000 nM.
Turning to `COc1ccc(C(=O)C#CC(C)(C(C)C)N(C)CCCO)cc1OC` (centres unmarked) [compound 655], half-maximal inhibition in assay [1] (setting [3]) (IC50) was put at 2100 nM.
On to `COc1cc(C(=O)C#CC(C)(C)N2CCCCC2)cc2c1OCO2` [compound 500], for which the 50% inhibitory concentration (IC50) in assay [2] (setting [4]) came out at 350 nM; in assay [1] (setting [3]), 480 nM.
Taken in the same sequence, the figures for `COc1ccc(C(=O)C#CC(C)(C)NC(=O)OCc2ccc[n+]([O-])c2)cc1OC` [compound 651] were 660 nM and 3500 nM.
Compound `COc1ccc(C(=O)C#CC(C)(C)C)cc1OC` [compound 8] registered an IC50 in assay [1] (setting [3]) of 2200 nM.
As to `COc1ccc(OC)c(C(=O)C#CC(C)(C)N2CCCCC2)c1` [compound 665], the results for the IC50 in assay [2] (setting [5]) and in assay [1] (setting [3]) were 1400 nM and 270 nM, respectively.
As to `COc1ccc(C(=O)C#CC(C)(C)Nc2cccnc2)cc1OC` [compound 646], the figures for the IC50 in assay [2] (setting [5]) and in assay [1] (setting [3]) were 300 nM and 2800 nM, respectively.
In the case of `COc1ccc(C(=O)C#CC(C)(C)N)cc1OC` [compound 395, 4-amino-1-(3,4-dimethoxy)phenyl-1-oxo-4-methyl-2-pentyne hydrochloride], in assay [2] (setting [4]), the IC50 is 39 nM.
In turn, `COc1ccc(C(=O)C#CC(C)(C)N2CCCCC2)cc1` [compound 476] had an IC50 in assay [1] (setting [3]) of 550 nM.
In the case of `COc1ccc(C(=O)C#C[Si](C)(C)C)cc1OC` [compound 633], the IC50 in assay [1] (setting [3]) stood at 14500 nM.
Turning to `COc1ccc(C(=O)C#CC(=O)Nc2ccccc2)cc1OC` [compound 197], the IC50 in assay [2] (setting [4]) is 1000 nM.
Turning to `COc1ccc(C(=O)C#CC(C)(NCCCO)C(C)C)cc1OC` (centres unmarked) [compound 654], the IC50 in assay [2] (setting [5]) came out at 940 nM; in assay [1] (setting [3]), 1000 nM.
As to `CC(C)(C#CC(=O)c1ccc2c(c1)OCO2)N1CCCCC1` [compound 482], the IC50 in assay [1] (setting [3]) stood at 300 nM.
Take `COc1ccc(C(=O)C#CC(C)(C)NC(=O)OCc2ccccc2)cc1OC` [compound 619]: the IC50 in assay [2] (setting [4]) was found to be 660 nM; in assay [1] (setting [3]), 1100 nM.
Taken in the same sequence, the figures for `CCN(CC)C(C)(C#CC(=O)c1ccc(OC)c(OC)c1)C(C)C` (centres unmarked) [compound 455] were 2900 nM and 560 nM.
For `COc1ccc(C(=O)C#CC(C)(C)Nc2ccccc2)cc1OC` [compound 643], the results for the IC50 in assay [2] (setting [5]) and in assay [1] (setting [3]) were 120 nM and 1100 nM, respectively.
For the compound `COc1ccc(C(=O)C#CC(C)(C)N(C)C)cc1OC` [compound 402], the IC50 is 330 nM in assay [2] (setting [5]) and 930 nM in assay [1] (setting [3]).
Take `COc1ccc(C(=O)C#CC(C)(C)NS(=O)(=O)c2ccc(OC)c(OC)c2)cc1OC` [compound 652]: inhibition in assay [1] (setting [3]) was half-maximal at 1300 nM (IC50).
As to `COc1ccc(C(=O)C#CC(C)(C)NCc2ccccc2)cc1OC` [compound 647], the IC50 was determined as 190 nM in assay [2] (setting [5]) and 790 nM in assay [1] (setting [3]).
Regarding `CC(C)(C#CC(=O)c1ccc(Cl)c(Cl)c1)N1CCCCC1` [compound 480], the IC50 in assay [1] (setting [3]) stood at 510 nM.
In the case of `CSc1ccc(C(=O)C#CC(C)(C)N2CCCCC2)cc1` [compound 484], the figures for the IC50 in assay [2] (setting [4]) and in assay [1] (setting [3]) were 1300 nM and 410 nM, respectively.
Taken in the same sequence, the figures for `COc1ccc(C(=O)C#CC(C)(C)O)cc1OC` [compound 613] were 150 nM and 1410 nM.
`COc1ccc(C(=O)C#CC(C)(C)NCCc2c[nH]c3ccccc23)cc1OC` [compound 648]: the IC50 was determined as 37 nM in assay [2] (setting [5]) and 1600 nM in assay [1] (setting [3]).
Take `C#CC(=O)c1ccc(OC)c(OC)c1` [compound 2]: inhibition in assay [1] (setting [3]) was half-maximal at 13000 nM (IC50).
`COc1ccc(C(=O)C#CC(O)(C(C)C)C(C)C)cc1OC` [compound 627] yielded an IC50 in assay [1] (setting [3]) of 680 nM.
On the same count and under the same terms, in the case of `CC(C)(C#CC(=O)c1cc2c(cc1[N+](=O)[O-])OCO2)N1CCCCC1` [compound 501] it was 1480 nM; in that of `N#CC(=Cc1ccc(O)c(O)c1)C(=O)Nc1ccccc1` [[drawing] 1)], 17000 nM.
As for `COc1ccc(C(=O)C#CC(C)(C)N2CCCCC2)cc1OC` [compound 477], the results for the IC50 in assay [2] (setting [4]) and in assay [1] (setting [3]) were 1300 nM and 640 nM, respectively.
Taken in the same sequence, the figures for `COc1ccc(C(=O)C#CC(C)(C)NC(=O)OCc2cccnc2)cc1OC` [compound 649] were 960 nM and 1100 nM.

What is called IC50 is the concentration that inhibits the measured activity by half.
